Our source for the IC50 values is US7977343B2, “Adenine derivatives” (Merck Patent Gesellschaft mit beschrankter Haftung, priority 2005, dated 2011).

In general, IC50 refers to the concentration at which inhibition is half-maximal.

This assay concerns the target T1, Recombinant human HSP90α (Homo sapiens, UniProt P07900).
T1 construct: host or cells: E. coli
Briefly: HSP90 radioligand filter binding test ([3H]17AAG competition). To be noted: [3H]17AAG 0.08 μM, HSP90 1.5 μg/assay, 22° C., 30 min; read-out: HSP90 inhibition IC50. The text has this:
The binding of geldanamycin or 17-allylamino-17-demethoxygeldanamycin (17AAG) to HSP90 and competitive inhibition thereof can be utilised in order to determine the inhibitory activity of the compounds according to the invention (Carreras et al. 2003, Chiosis et al. 2002).
In the specific case, a radioligand filter binding test is used. The radioligand used here is tritium-labelled 17-allylaminogeldanamycin, [3H]17AAG. This filter binding test allows a targeted search for inhibitors which interfere with the ATP binding site.
Recombinant human HSP90α (E. coli expressed, 95% purity);
[3H]17AAG (17-allylaminogeldanamycin, [allylamino-2,3-^3H. Specific activity: 1.11×10^12 Bq/mmol (Moravek, MT-1717);
HEPES filter buffer (50 mM HEPES, pH 7.0, 5 mM MgCl2, BSA 0.01%) Multiscreen FB (1 μm) filter plate (Millipore, MAFBNOB 50).
The 96-well microtitre filter plates are firstly irrigated and coated with 0.1% of polyethylenimine.
The test is carried out under the following conditions:
Reaction temperature 22° C.
Reaction time: 30 min., shaking at 800 rpm
50 mM HEPES HCl, pH 7.0, 5 mM MgCl2, 0.01% (w/v) BSA
At the end of the reaction, the supernatant in the filter plate is removed by suction with the aid of a vacuum manifold (Multiscreen Separation System, Millipore), and the filter is washed twice.
The filter plates are then measured in a beta counter (Microbeta, Wallac) with scintillator (Microscint 20, Packard).
“% of control” is determined from the “counts per minutes” values and the IC-50 value of a compound is calculated therefrom.
Turning to `Cc1nc(N2CCC[C@@H]2COc2ccccc2Cl)c2nc[nH]c2n1` [Compound A58, 2-Methyl-6-[(R)-2-(2-chloro-phenoxymethyl)pyrrolidin-1-yl]-9H-purine], the IC50 is 6.3 µM.
Then `Brc1ccccc1OC[C@H]1CCCN1c1ncnc2[nH]cnc12` [Compound A52, 6-[(R)-2-(2-Bromophenoxymethyl)-pyrrolidin-1-yl]-9H-purine], with 20 µM; and `Fc1nc(N2CCC[C@@H]2COc2ccccc2F)c2nc[nH]c2n1` [Compound A47, 2-Fluoro-6-[(R)-2-(2-fluorophenoxy-methyl)pyrrolidin-1-yl]-9H-purine], with 0.9 µM; and `Cc1nc(N2CCC[C@@H]2COc2ccccc2F)c2nc[nH]c2n1` [Compound A57, 2-Methyl-6-[(R)-2-(2-fluorophenoxy-methyl)pyrrolidin-1-yl]-9H-purine], with 1.5 µM.
For `O[C@H]1C[C@H](COc2ccccc2)N(c2nc(Cl)nc3[nH]cnc23)C1` [Compound A53, 2-chloro-6-[(2R,4S)-2-phenoxymethyl-4-hydroxypyrrolidin-1-yl]-9H-purine], the IC50 came to 30 µM.
